Source: patent US9056840B2, “Coelenterazine analogues and coelenteramide analogues” (JNC Corporation, priority 2010, dated 2015)
Entries after “also recorded” stand apart in the source; their conditions may differ.

Tests used:
apoaequorin [1] = target: T1, apoaequorin (Aequorea victoria, UniProt P07164); test: Calcium standard curve with semi-synthetic aequorins; type: biochemical; conditions: FIG. 3; Imax versus calcium concentration
T1 construct: purchased Chisso Corporation
Experimental: In 9 ml of 50 mM Tris-HCl (pH 7.6), 1 ml of 1 g/L calcium carbonate standard solution (manufactured by Wako Pure Chemicals) was diluted to prepare 10^−3 M calcium carbonate solution. One milliliter of the resulting 10^−3 M calcium carbonate solution was taken and added to 9 ml of 50 mM Tris-HCl (pH 7.6) to prepare 10^−4 M calcium carbonate solution. Next, 3 ml of the resulting 10^−4 M calcium carbonate solution was taken and added to 6 ml of 50 mM Tris-HCl (pH 7.6) to prepare […] calcium carbonate solution. One milliliter from the 10^−4 M calcium carbonate solution obtained was added to 9 ml of 50 mM Tris-HCl (pH 7.6) to prepare 10^−5 M calcium carbonate solution. Then, 3 ml of the resulting 10^−5 M calcium carbonate solution was taken and added to 6 ml of 50 mM Tris-HCl (pH 7.6) to prepare 3×10^−5 M calcium carbonate solution. A dilution series was prepared by successively repeating the procedures described above to give the 10^−3 M to 10^−8 M calcium standard solutions.
In 5 ml of 50 mM Tris-HCl (pH 7.6) containing 10 mM DTT and 30 mM EDTA, 5 mg of recombinant apoaequorin (manufactured by Chisso Corporation) was dissolved and 100 μg of coelenterazine analogue dissolved in ethanol in an amount of 1.2-fold equivalent was added to the solution. The mixture was allowed to stand at 4° C. overnight to convert into semi-synthetic aequorin. The resulting semi-synthetic aequorin was concentrated using Amicon Ultra-4 (manufactured by Millipore, Inc., molecular weight cut-off: 10,000) to remove an excessive of coelenterazine analogue. The mixture was then washed 3 times with 3 ml of 30 mM Tris-HCl (pH 7.6) containing 0.05 mM EDTA to give the solution of semi-synthetic aequorin containing 0.05 mM EDTA. This semi-synthetic aequorin solution (2.5 mg/ml) was diluted with 20 mM Tris-HCl (pH 7.6) containing 0.1% BSA (manufactured by Sigma), 0.01 mM EDTA and 150 mM NaCl.
The calcium standard solution prepared as above was dispensed into a 96-well microplate (Nunc #236108) at 50 μl/well and 10 μl of the diluted semi-synthetic aequorin solution was injected into 50 μl of various concentration of calcium standard solution. The luminescence intensity was measured for 60 seconds on a luminescence plate reader Centro LB960 (manufactured by Berthold) and expressed in terms of the maximum intensity (Imax) of luminescence. The luminescence intensity was measured on each semi-synthetic aequorin in the same procedures. Semi-synthetic aequorins for practically use were chosen by the maximum intensity (Imax) of luminescence and the calcium standard curve of semi-synthetic aequorin was prepared.

Gaussia luciferase = test: Substrate specificity and luminescence activity of Gaussia luciferase; type: biochemical; conditions: measured for 10 seconds, coelenterazine = 100
Experimental: Gaussia luciferase was purified by the method described in Japanese Patent Application KOKAI No. 2008-099669 and provided for use. After 1 μl of Gaussia luciferase (0.024 mg/ml) was dissolved in 100 μl of phosphate buffered saline (manufactured by Sigma Inc.) containing 0.01% Tween 20 (manufactured by Sigma Inc.) and 10 mM EDTA, 1 μl of a solution of coelenterazine or its analogue (1 μg/μl) in ethanol was mixed with the solution to start the luminescence reaction. The luminescence activity was measured for 10 seconds on a luminometer luminescencer-PSN AB2200 (manufactured by Atto Co., Ltd.). The luminescence activity was determined by repeating the measurement described above 3 times and expressed in terms of the maximum luminescence intensity (Imax) of luminescence activity.

[2] = target: T2, 19 kDa protein from Oplophorus luciferase (Oplophorus gracilirostris, UniProt Q9GV45); test: Substrate specificity and luminescence activity of the 19 kDa protein from Oplophorus luciferase; type: biochemical; conditions: measured for 60 seconds, coelenterazine = 100
T2 construct: made in house
Experimental: The 19 kDa protein from Oplophorus luciferase was purified by the method described in Inouye, S. and Sasaki, S., Protein Express. Purif. (2007) 56: 261-268 and provided for use.
After 1 μl of the 19 kDa protein (2.3 mg/ml) from Oplophorus luciferase containing 1 mM DTT was dissolved in 100 μl of 30 mM Tris-HCl (pH 7.6) containing 10 mM EDTA, 1 μl of a solution of coelenterazine or its analogue (1 μg/μl) in ethanol was added to the solution to start the luminescence reaction, and the luminescence activity was measured for 60 seconds on a luminometer luminescencer-PSN AB2200 (manufactured by Atto Co., Ltd.). The luminescence activity was determined by repeating the measurement described above 3 times and expressed in terms of the maximum luminescence intensity (Imax) of luminescence activity.

apoaequorin [3] = target: T1, apoaequorin; test: Luminescence patterns of semi-synthetic aequorins, half decay time; type: biochemical; conditions: for Half decay time: semi-synthetic aequorin, time in which luminescence becomes half of maximum, patterns measured for 60 seconds
Experimental: A solution of the regenerated semi-synthetic aequorin was diluted to 10-fold with 20 mM Tris-HCl (pH 7.6) containing 0.1% BSA (manufactured by Sigma, Inc.), 0.01 mM EDTA and 150 mM NaCl. The dilution was dispensed into a 96-well microplate (Nunc #236108) at 5 μl/well. The luminescence reaction was triggered by injecting 50 mM Tris-HCl (pH 7.6) containing 50 mM calcium chloride solution at 100 μl/well. The luminescence patterns for 60 seconds were measured to determine half decay time of the luminescence (a time period in which the luminescence becomes half of the maximum luminescence intensity).

apoaequorin [4] = target: T1, apoaequorin; test: Luminescence spectra of semi-synthetic aequorins; type: biochemical; conditions: semi-synthetic aequorin, calcium added, 22 to 25° C.
Experimental: In a quartz cell with light path length of 10 mm, 1 ml of 50 mM Tris-HCl (pH 7.6) containing 1 mM EDTA and 100 μl (100 μg protein) of a solution of the regenerated semi-synthetic aequorin were charged. Next, 100 μl of 50 mM Tris-HCl (pH 7.6) containing 0.1 ml of 10 mM calcium chloride solution was added thereto to start the luminescence reaction. The spectra were measured on a spectrofluorimeter (FP-6500, manufactured by Jasco Co., Ltd.) with the excitation light source turned off. The measurement conditions were bandwidth: 20 nm, response: 0.5 second, scan speed: 2000 nm/min and 22 to 25° C. The luminescence spectra measured were corrected.

Renilla luciferase = target: T3, Renilla luciferase (Renilla reniformis, UniProt P27652); test: Substrate specificity and luminescence activity of Renilla luciferase; type: biochemical; conditions: measured for 10 seconds, coelenterazine = 100
T3 construct: made in house
T3 sequence (P27652 1-311): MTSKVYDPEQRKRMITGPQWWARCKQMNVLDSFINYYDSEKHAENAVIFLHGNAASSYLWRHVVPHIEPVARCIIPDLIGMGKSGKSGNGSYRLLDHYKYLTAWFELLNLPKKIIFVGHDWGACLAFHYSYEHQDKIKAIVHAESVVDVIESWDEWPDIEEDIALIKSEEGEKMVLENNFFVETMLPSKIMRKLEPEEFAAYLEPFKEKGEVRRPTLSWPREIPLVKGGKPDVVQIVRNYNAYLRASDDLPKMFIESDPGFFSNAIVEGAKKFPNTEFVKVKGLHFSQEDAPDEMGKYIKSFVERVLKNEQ
Experimental: Renilla luciferase was purified by the method described in Inouye, S. & Shimomura, O. Biochem. Biophys. Res. Commun. (1997) 233: 349-353, and used for assay.
After 1 μl of Renilla luciferase (0.45 mg/ml) was dissolved in 100 μl of 30 mM Tris-HCl (pH 7.6) containing 10 mM EDTA, 1 μl of a solution of coelenterazine or its analogue (1 μg/μl) in ethanol was added to the solution to start the luminescence reaction. The luminescence activity was measured for 10 seconds on a luminometer luminescencer-PSN AB2200 (manufactured by Atto Co., Ltd.). The luminescence activity was determined by repeating the measurement of luminescence activity described above 3 times and expressed in terms of the maximum luminescence intensity (Imax) of luminescence activity.

apoaequorin [5] = target: T1, apoaequorin; test: Fluorescence spectra of fluorescent proteins formed from semi-synthetic aequorins by Ca2+; type: physicochemical; conditions: for Maximum fluorescence wavelength λmax (nm) / Relative fluorescence intensity (rlu): fluorescent protein generated by calcium from semi-synthetic aequorin, excitation 330 nm, 25° C.; for fluorescence spectra of fluorescent proteins versus emission spectra of semi-synthetic aequorins, in words: same coelenterazine analogue
Experimental: The fluorescence spectra of novel fluorescent proteins formed by the Ca^2+-triggerd reaction from semi-synthetic aequorins in EXAMPLE 3 were measured at 25° C. in a quartz cell (10 mm light path length) using a Jasco FP-6500 spectrofluorometer (excitation wavelength: 330 nm, emission/excitation bandwidth: 3 nm; response: 0.5 sec, scan speed, 1000 nm/min). The fluorescence spectra measured were corrected.

T2 sequence (Q9GV45 28-196): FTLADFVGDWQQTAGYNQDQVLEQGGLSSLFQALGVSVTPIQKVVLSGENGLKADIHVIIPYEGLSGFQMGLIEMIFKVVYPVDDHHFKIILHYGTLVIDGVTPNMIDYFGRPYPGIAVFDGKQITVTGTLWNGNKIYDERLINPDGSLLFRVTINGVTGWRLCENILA
T1 sequence (P07164 other isoform, or with tags, fused parts or gaps with the stated changes): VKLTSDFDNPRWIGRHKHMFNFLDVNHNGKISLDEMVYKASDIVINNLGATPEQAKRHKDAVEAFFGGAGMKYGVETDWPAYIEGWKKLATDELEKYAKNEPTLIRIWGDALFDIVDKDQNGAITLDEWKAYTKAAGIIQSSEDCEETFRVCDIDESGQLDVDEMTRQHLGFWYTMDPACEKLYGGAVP

Question: With `O=c1c(Cc2ccc(O)cc2)nc2c(-c3ccccc3)[nH]c(-c3ccc(O)cc3)cn1-2` [Compound 3a, 2-(4-Hydroxybenzyl)-6-(4-hydroxyphenyl)-8-phenylimidazo[1,2-a]pyrazin-3(7H)-one] as the compound, how does the “calcium standard curve with semi-synthetic aequorin, in words” value (from here on “calcium standard curve”) (apoaequorin [1]) read?
Answer: calcium standard curve can be prepared

Question: What about the “Luminescence activity Imax (%)” value (Gaussia luciferase) of the same compound?
Answer: 0.00%

Question: And the “Luminescence activity Imax (%)” value [2]?
Answer: 0.4%

Question: And the “half decay time of luminescence compared to coelenterazine (native aequorin), in words” value (apoaequorin [3])?
Answer: markedly prolonged; also recorded: longer half decay time

Question: And the “Half decay time” value (apoaequorin [3])?
Answer: 15.7 s

Question: What about the “Maximum luminescence wavelength λmax (nm)” value (apoaequorin [4]) of the same compound?
Answer: 494.0 nm

Question: What about the “Luminescence activity Imax (%)” value (Renilla luciferase) of the same compound?
Answer: 0.00%

Question: What about the “Maximum fluorescence wavelength λmax (nm)” value (apoaequorin [5]) of the same compound?
Answer: 501.5 nm

Question: And the “Relative fluorescence intensity (rlu)” value (apoaequorin [5])?
Answer: 118.1 rlu

Question: And the “fluorescence spectra of fluorescent proteins versus emission spectra of semi-synthetic aequorins, in words” value (apoaequorin [5])?
Answer: different luminescence spectra and fluorescence spectra

Question: `O=c1c(Cc2ccc(O)cc2)nc2c(-c3cccs3)[nH]c(-c3ccc(O)cc3)cn1-2` [Compound 3f, 2-(4-Hydroxybenzyl)-6-(4-hydroxyphenyl)-8-(thiophen-2-yl)imidazo[1,2-α]pyrazin-3(7H)-one] was tested. Which “calcium standard curve” value (apoaequorin [1]) did it give?
Answer: calcium standard curve can be prepared

Question: And the “Luminescence activity Imax (%)” value (Gaussia luciferase)?
Answer: 0.00%

Question: What about the “Luminescence activity Imax (%)” value [2] of the same compound?
Answer: 0.1%

Question: What about the “half decay time of luminescence compared to coelenterazine (native aequorin), in words” value (apoaequorin [3]) of the same compound?
Answer: markedly prolonged; also recorded: longer half decay time

Question: What about the “Half decay time” value (apoaequorin [3]) of the same compound?
Answer: >60 s

Question: What about the “Maximum luminescence wavelength λmax (nm)” value (apoaequorin [4]) of the same compound?
Answer: 515.0 nm

Question: And the “Luminescence activity Imax (%)” value (Renilla luciferase)?
Answer: 0.00%

Question: What about the “Maximum fluorescence wavelength λmax (nm)” value (apoaequorin [5]) of the same compound?
Answer: 525.0 nm

Question: What about the “Relative fluorescence intensity (rlu)” value (apoaequorin [5]) of the same compound?
Answer: 38.5 rlu

Question: What about the “fluorescence spectra of fluorescent proteins versus emission spectra of semi-synthetic aequorins, in words” value (apoaequorin [5]) of the same compound?
Answer: different luminescence spectra and fluorescence spectra

Question: Which “calcium standard curve” value (apoaequorin [1]) does the source give for `O=c1c(Cc2ccc(O)cc2)nc2c(-c3ccc4ccccc4c3)[nH]c(-c3ccc(O)cc3)cn1-2` [Compound 3e, 2-(4-Hydroxybenzyl)-6-(4-hydroxyphenyl)-8-(naphthalen-2-yl)imidazo[1,2-a]pyrazin-3(7H)-one] here?
Answer: calcium standard curve can be prepared

Question: And the “Luminescence activity Imax (%)” value (Gaussia luciferase)?
Answer: 0.00%

Question: What about the “Luminescence activity Imax (%)” value [2] of the same compound?
Answer: 0.07%

Question: What about the “half decay time of luminescence compared to coelenterazine (native aequorin), in words” value (apoaequorin [3]) of the same compound?
Answer: markedly prolonged; also recorded: longer half decay time

Question: What about the “Half decay time” value (apoaequorin [3]) of the same compound?
Answer: 3.42 s

Question: What about the “Maximum luminescence wavelength λmax (nm)” value (apoaequorin [4]) of the same compound?
Answer: 507.0 nm

Question: And the “Luminescence activity Imax (%)” value (Renilla luciferase)?
Answer: 0.00%

Question: What about the “Maximum fluorescence wavelength λmax (nm)” value (apoaequorin [5]) of the same compound?
Answer: 468.5 nm

Question: What about the “Relative fluorescence intensity (rlu)” value (apoaequorin [5]) of the same compound?
Answer: 28.0 rlu

Question: And the “fluorescence spectra of fluorescent proteins versus emission spectra of semi-synthetic aequorins, in words” value (apoaequorin [5])?
Answer: markedly different; also recorded: different luminescence spectra and fluorescence spectra
